Measured values reported in patent publication US20080269106A1, “Methods and Compositions for Diagnosis and Treatment of Disorders Involving Macrophages” (priority 2005, published 2008).
d = 2'-deoxy (DNA); r = 2'-OH (RNA)

Legend:
[1] = tested on: RARα fusion proteins (AR-N′/RAR, ER-N′/RAR); experiment: RARα-dependent reporter with AR-N'/RAR and ER-N'/RAR fusion receptors, single cell microinjection; assay type: cell-based
BMP7 = experiment: Semi-quantitative RT-PCR of BMP7 in MCF-7 breast cancer cells; assay type: cell-based; conditions: MCF-7 cells
Protocol: Semi-quantitative RT-PCR was carried out as described (Zhu et al, 2004). Primers were: […]
(§1) Actin was used as the loading control. […] A BMP7 promoter-controlled LacZ reporter and an ERα expression plasmid were injected into cells. […] Wild-type ERα and Erα (E203A/G204A) were cotransfected with the reporter in 293 cells. […] Primer pair #1 flanks two putative ERE half-sites, and primer pair #2 (control) flanks a region ˜3 kb upstream of #1.
This is particularly relevant in light of the fact that a key aspect of reproductive regulation, blastocyst implantation, involves a local induction of BMP7 in response to inflammatory signals (Monroe et al., 2000; Paria et al., 2001).

[2] = target: estrogen receptor-α (ERα) (Homo sapiens, UniProt P03372); conditions: cells null for either MEKK1 or TAB2
Source text: Wild-type MEKK1, C478A MEKK1 (mutant of ubiquitin ligase activity), or D1369A MEKK1 (mutant of kinase activity) was used to rescue IL-1β-dependent activation of the pS2 promoter by 4-OHT in MEFs from MEKK−/− mice.

androgen receptor (AR) [3] = target: T1, androgen receptor (AR) (Homo sapiens, UniProt P10275); experiment: PSA promoter reporter, single cell nuclear microinjection in RWPE1 cells; assay type: cell-based; conditions: for effect on IL-1β-mediated activator function of bicalutamide: 14mer peptide microinjected, PSA promoter- or ARE-dependent reporters
T1 construct: endogenous in cells; host or cells: RWPE1 prostate cells
T1 sequence (P10275 1-920): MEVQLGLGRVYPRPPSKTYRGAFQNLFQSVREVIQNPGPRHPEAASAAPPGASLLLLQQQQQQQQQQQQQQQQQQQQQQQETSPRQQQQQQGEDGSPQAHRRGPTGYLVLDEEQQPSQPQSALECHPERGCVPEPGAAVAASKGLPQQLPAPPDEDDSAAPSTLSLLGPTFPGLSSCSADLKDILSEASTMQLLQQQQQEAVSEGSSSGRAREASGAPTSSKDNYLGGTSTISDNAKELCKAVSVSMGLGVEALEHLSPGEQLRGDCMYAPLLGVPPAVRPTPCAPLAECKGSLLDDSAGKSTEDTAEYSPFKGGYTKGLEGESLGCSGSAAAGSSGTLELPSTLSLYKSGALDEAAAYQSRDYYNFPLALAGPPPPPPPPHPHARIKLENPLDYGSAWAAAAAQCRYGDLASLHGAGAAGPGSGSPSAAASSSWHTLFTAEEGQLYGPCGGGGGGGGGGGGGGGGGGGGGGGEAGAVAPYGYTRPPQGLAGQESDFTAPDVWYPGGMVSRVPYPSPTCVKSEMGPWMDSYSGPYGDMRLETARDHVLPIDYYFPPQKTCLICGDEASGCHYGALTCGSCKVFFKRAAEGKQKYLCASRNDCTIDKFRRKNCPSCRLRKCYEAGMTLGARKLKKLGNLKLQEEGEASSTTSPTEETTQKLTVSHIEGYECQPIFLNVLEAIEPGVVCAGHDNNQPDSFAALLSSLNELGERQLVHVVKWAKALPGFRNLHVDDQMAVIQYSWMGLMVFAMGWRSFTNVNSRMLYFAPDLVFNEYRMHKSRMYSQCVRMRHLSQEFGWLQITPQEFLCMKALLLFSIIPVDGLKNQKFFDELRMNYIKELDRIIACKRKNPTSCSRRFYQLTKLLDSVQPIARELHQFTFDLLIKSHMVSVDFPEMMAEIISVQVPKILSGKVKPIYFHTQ
Source text: One representative of three independent experiments is shown.

androgen receptor (AR) [4] = target: T1, androgen receptor (AR); experiment: ARE-dependent lacZ reporter, single cell nuclear microinjection; assay type: cell-based; conditions: presence of bicalutamide
Protocol: Specific IgGs against AR, N-CoR, TAB2, HDAC3, HDAC2, HDAC1, Sin3, or MBD3 were used to immunoprecipitate protein-bound DNA fragments. […] The bound material was eluted and divided into several aliquots, and re-immunoprecipitated with antibodies as shown (2nd IP).
Cells were stained with antibodies directed against the N-CoR, and the fluorescence-conjugated secondary antibody was visualized using deconvoluting microscopy. Merged images with nuclear staining with DAPI are shown. […] 5 ng/ml of leptomycin B (LMB), a nuclear export inhibitor, was also used for 30 min followed by treatment with 10 ng/ml of IL-1β.

ERα [5] = target: T2, ERα (Homo sapiens, UniProt P03372); experiment: BMP7 promoter-controlled LacZ reporter, single cell nuclear microinjection in Rat-1 cells; assay type: cell-based; parameters: expressed in transfected cells; host or cells: Rat-1 cells; conditions: added to E2
T2 sequence (P03372 1-595): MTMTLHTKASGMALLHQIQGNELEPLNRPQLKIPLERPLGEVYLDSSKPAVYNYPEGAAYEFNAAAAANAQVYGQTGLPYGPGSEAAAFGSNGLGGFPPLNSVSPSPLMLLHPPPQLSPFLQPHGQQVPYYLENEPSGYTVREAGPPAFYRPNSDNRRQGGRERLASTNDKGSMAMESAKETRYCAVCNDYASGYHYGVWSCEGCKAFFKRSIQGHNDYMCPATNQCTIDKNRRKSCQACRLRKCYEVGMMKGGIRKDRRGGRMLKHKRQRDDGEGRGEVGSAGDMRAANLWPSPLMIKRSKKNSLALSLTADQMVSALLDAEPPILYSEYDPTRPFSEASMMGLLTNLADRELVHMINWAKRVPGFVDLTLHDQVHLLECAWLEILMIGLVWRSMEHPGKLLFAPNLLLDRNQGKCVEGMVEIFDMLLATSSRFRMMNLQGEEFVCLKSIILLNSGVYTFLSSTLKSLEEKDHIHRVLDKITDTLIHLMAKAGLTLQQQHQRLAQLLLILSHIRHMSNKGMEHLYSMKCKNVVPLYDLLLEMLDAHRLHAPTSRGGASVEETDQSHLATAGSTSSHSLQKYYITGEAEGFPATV
Protocol: as §1

ERα [6] = target: T2, ERα; experiment: Luciferase reporter driven by human BMP7 proximal promoter in 293 cells; assay type: cell-based; parameters: expressed in transfected cells; host or cells: 293 cells; conditions: combination of E2 and IL-1β
Protocol: as §1

endogenous TAB2 = target: T3, endogenous TAB2 (UniProt Q9NYJ8 1-693); experiment: 2-step ChIP co-occupancy
T3 construct: Endogenous protein, detected with anti-TAB2 IgG
T3 sequence (looked up): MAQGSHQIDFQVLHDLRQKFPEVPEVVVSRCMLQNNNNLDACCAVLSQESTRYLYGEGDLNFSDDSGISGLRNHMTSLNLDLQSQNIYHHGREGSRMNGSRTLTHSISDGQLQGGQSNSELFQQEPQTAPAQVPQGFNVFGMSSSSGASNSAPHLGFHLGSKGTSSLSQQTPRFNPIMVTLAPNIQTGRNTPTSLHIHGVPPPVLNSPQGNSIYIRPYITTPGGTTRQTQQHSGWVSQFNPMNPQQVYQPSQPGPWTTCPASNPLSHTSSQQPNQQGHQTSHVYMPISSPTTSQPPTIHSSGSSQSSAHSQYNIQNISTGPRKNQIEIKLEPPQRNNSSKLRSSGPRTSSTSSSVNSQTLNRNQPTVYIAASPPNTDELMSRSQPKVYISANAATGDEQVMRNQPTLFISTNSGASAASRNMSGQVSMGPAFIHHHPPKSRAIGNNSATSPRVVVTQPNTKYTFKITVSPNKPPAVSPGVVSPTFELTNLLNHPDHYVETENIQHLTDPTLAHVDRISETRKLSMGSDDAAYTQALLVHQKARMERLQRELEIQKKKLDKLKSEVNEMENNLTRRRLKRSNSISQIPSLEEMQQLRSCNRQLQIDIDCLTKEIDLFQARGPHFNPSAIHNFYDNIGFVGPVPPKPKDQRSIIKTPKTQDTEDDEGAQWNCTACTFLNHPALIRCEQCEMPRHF

C[C@]12CC[C@@H]3c4ccc(O)cc4CC[C@H]3[C@@H]1CC[C@@H]2O [E2, 17-β-estradiol]
activation of chimeric RARα [1]: neither E2 nor DHT exerted activation effects
BMP7 transcript levels (BMP7): decreased levels of BMP7 transcripts

4-OH tamoxifen [4-OHT]
IL-1β-dependent conversion to activator of ERα [2]: failed to occur

DILSEASTMQLLQQ [14mer synthetic peptide encompassing the AR LX7LL motif]
effect on IL-1β-mediated activator function of bicalutamide (androgen receptor (AR) [3]): specifically blocked
effect on macrophage-induced agonistic switch of bicalutamide (androgen receptor (AR) [3]; peptide microinjected into RWPE1 cells pre-treated with TNFα, THP-1 macrophages, PSA promoter-dependent reporter): blocked

5′-GCACCGAAGUAUUGUCCAAdTdT-3′ (sense GCACCGAAGUAUUGUCCAATT; antisense UUGGACAAUACUUCGGUGCTT; siRNA; sugars from the 5' end r19 d2, backbone not given here) [N-CoR siRNA]
effect on bicalutamide-dependent repression of ARE reporter (androgen receptor (AR) [4]): switch from repression to activation

IL-1β: human IL-1β from Calbiochem, pro-inflammatory cytokine
expression of hBMP-7 promoter-controlled reporter on addition to E2 (ERα [5]): actively increased expression over the baseline
hBMP7 proximal promoter reporter activity, combination with E2 (ERα [6]): restored the reporter activity to the baseline
effect on E2 inhibition of BMP7 transcripts (BMP7; added to E2): blocked this inhibition

C[C@]12CCC(=O)C[C@@H]1CC[C@@H]1[C@@H]2CC[C@]2(C)[C@@H](O)CC[C@@H]12 [DHT, Dihydrotestosterone]
activation of chimeric RARα [1]: neither E2 nor DHT exerted activation effects

DIASEASTMQAAQQ [mutated AX7AA (SEQ ID NO:26) sequence]
effect on IL-1β-mediated activator function of bicalutamide (androgen receptor (AR) [3]): failed to inhibit induction

B1: wild-type RARα (receptor, UniProt P10276 1-462, looked up)
chain: MASNSSSCPTPGGGHLNGYPVPPYAFFFPPMLGGLSPPGALTTLQHQLPVSGYSTPSPATIETQSSSSEEIVPSPPSPPPLPRIYKPCFVCQDKSSGYHYGVSACEGCKGFFRRSIQKNMVYTCHRDKNCIINKVTRNRCQYCRLQKCFEVGMSKESVRNDRNKKKKEVPKPECSESYTLTPEVGELIEKVRKAHQETFPALCQLGKYTTNNSSEQRVSLDIDLWDKFSELSTKCIIKTVEFAKQLPGFTTLTIADQITLLKAACLDILILRICTRYTPEQDTMTFSDGLTLNRTQMHNAGFGPLTDLVFAFANQLLPLEMDDAETGLLSAICLICGDRQDLEQPDRVDMLQEPLLEALKVYVRKRRPSRPHMFPKMLMKITDLRSISAKGAERVITLKMEIPGSMPPLIQEMLENSEGLDTLSGQPGGGGRDGGGLAPPPGSCSPSLSPSSNRSSPATHSP
notes: also called retinoic acid receptor
binding result (endogenous TAB2): no binding
